Assay results: PubChem BioAssay (NCI)
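Five compound concentrations were applied to cells in 96-well plates for 48 hours; endpoints were derived by simple linear interpolation of the resulting dose-response curve. TGI marks complete inhibition of growth.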

Columns and labels:
Experiment in all cases: NCI-60 cell line screen, 48 h
M14 melanoma = test system: M14 melanoma
OVCAR-3 ovarian = test system: OVCAR-3 ovarian
SNB-75 CNS = test system: SNB-75 CNS
K-562 leukemia = test system: K-562 leukemia
U251 CNS = test system: U251 CNS
SN12C renal = test system: SN12C renal
OVCAR-4 ovarian = test system: OVCAR-4 ovarian
NCI-H226 lung = test system: NCI-H226 lung
HCT-116 colon = test system: HCT-116 colon
RXF 393 renal = test system: RXF 393 renal
UO-31 renal = test system: UO-31 renal
RPMI-8226 leukemia = test system: RPMI-8226 leukemia
SK-MEL-2 melanoma = test system: SK-MEL-2 melanoma
KM20L2 colon = test system: KM20L2 colon
OVCAR-5 ovarian = test system: OVCAR-5 ovarian
COLO 205 colon = test system: COLO 205 colon
CCRF-CEM leukemia = test system: CCRF-CEM leukemia
DMS 273 small cell lung = test system: DMS 273 small cell lung
MALME-3M melanoma = test system: MALME-3M melanoma
UACC-257 melanoma = test system: UACC-257 melanoma
SNB-19 CNS = test system: SNB-19 CNS
NCI-H522 lung = test system: NCI-H522 lung
OVCAR-8 ovarian = test system: OVCAR-8 ovarian
ACHN renal = test system: ACHN renal
HOP-18 NSCLC = test system: HOP-18 NSCLC
SNB-78 CNS = test system: SNB-78 CNS
LXFL 529 NSCLC = test system: LXFL 529 NSCLC
HOP-62 NSCLC = test system: HOP-62 NSCLC
SK-MEL-5 melanoma = test system: SK-MEL-5 melanoma
SR leukemia = test system: SR leukemia
UACC-62 melanoma = test system: UACC-62 melanoma
NCI-H23 lung = test system: NCI-H23 lung
A498 renal = test system: A498 renal
HCC-2998 colon = test system: HCC-2998 colon
DMS 114 small cell lung = test system: DMS 114 small cell lung
HCT-15 colon = test system: HCT-15 colon
DLD-1 colon = test system: DLD-1 colon
SF-295 CNS = test system: SF-295 CNS
TK-10 renal = test system: TK-10 renal
KM12 colon = test system: KM12 colon
NCI-H460 lung = test system: NCI-H460 lung
786-0 renal = test system: 786-0 renal
LOX IMVI melanoma = test system: LOX IMVI melanoma
HT29 colon = test system: HT29 colon
EKVX NSCLC = test system: EKVX NSCLC
CAKI-1 renal = test system: CAKI-1 renal
IGROV1 ovarian = test system: IGROV1 ovarian
SF-268 CNS = test system: SF-268 CNS
MOLT-4 leukemia = test system: MOLT-4 leukemia
SW-620 colon = test system: SW-620 colon
M19-MEL melanoma = test system: M19-MEL melanoma
SK-OV-3 ovarian = test system: SK-OV-3 ovarian
HOP-92 NSCLC = test system: HOP-92 NSCLC
A549 NSCLC = test system: A549 NSCLC
SF-539 CNS = test system: SF-539 CNS
SK-MEL-28 melanoma = test system: SK-MEL-28 melanoma
HL-60(TB) leukemia = test system: HL-60(TB) leukemia

Measured: TGI

COC(=O)C1=CC(O)CCC1c1ccc(OC)cc1 (stereo not drawn)
> 100 µM: M14 melanoma | OVCAR-3 ovarian | SNB-75 CNS | K-562 leukemia | U251 CNS | SN12C renal | OVCAR-4 ovarian | NCI-H226 lung | HCT-116 colon | RXF 393 renal | UO-31 renal | RPMI-8226 leukemia | SK-MEL-2 melanoma | KM20L2 colon | OVCAR-5 ovarian | COLO 205 colon | CCRF-CEM leukemia | DMS 273 small cell lung | MALME-3M melanoma | UACC-257 melanoma | SNB-19 CNS | NCI-H522 lung | OVCAR-8 ovarian | ACHN renal | HOP-18 NSCLC | SNB-78 CNS | LXFL 529 NSCLC | HOP-62 NSCLC | SK-MEL-5 melanoma | SR leukemia | UACC-62 melanoma | NCI-H23 lung | A498 renal | HCC-2998 colon | DMS 114 small cell lung | HCT-15 colon | DLD-1 colon | SF-295 CNS | TK-10 renal | KM12 colon | NCI-H460 lung | 786-0 renal | LOX IMVI melanoma | HT29 colon | EKVX NSCLC | CAKI-1 renal | IGROV1 ovarian | SF-268 CNS | MOLT-4 leukemia | SW-620 colon | M19-MEL melanoma | SK-OV-3 ovarian | HOP-92 NSCLC | A549 NSCLC | SF-539 CNS | SK-MEL-28 melanoma | HL-60(TB) leukemia

COc1ccccc1/C=C/C(=O)c1sc(-c2cccnc2)nc1C
> 100 µM: OVCAR-3 ovarian | SNB-75 CNS | K-562 leukemia | U251 CNS | SN12C renal | NCI-H226 lung | RXF 393 renal | UO-31 renal | RPMI-8226 leukemia | SK-MEL-2 melanoma | KM20L2 colon | OVCAR-5 ovarian | COLO 205 colon | CCRF-CEM leukemia | DMS 273 small cell lung | MALME-3M melanoma | UACC-257 melanoma | NCI-H522 lung | OVCAR-8 ovarian | ACHN renal | HOP-18 NSCLC | SNB-78 CNS | HOP-62 NSCLC | SK-MEL-5 melanoma | UACC-62 melanoma | NCI-H23 lung | A498 renal | HCC-2998 colon | DMS 114 small cell lung | HCT-15 colon | DLD-1 colon | SF-295 CNS | TK-10 renal | KM12 colon | NCI-H460 lung | 786-0 renal | LOX IMVI melanoma | HT29 colon | EKVX NSCLC | CAKI-1 renal | IGROV1 ovarian | SF-268 CNS | MOLT-4 leukemia | SW-620 colon | M19-MEL melanoma | SK-OV-3 ovarian | HOP-92 NSCLC | A549 NSCLC | SF-539 CNS | SK-MEL-28 melanoma | HL-60(TB) leukemia
